Reference: US11596656B2, “Stem cell-produced microvesicles for treating tendon pathologies” (ALBERT EINSTEIN COLLEGE OF MEDICINE, priority 2016, dated 2023)
Structures can show the parent of a compound that is named as a salt.

Legend:
[1] = system: MSCs grown on silk scaffolds; assay: Rho/Rock pathway and stress fiber disruption in MSCs grown on silk scaffolds; type: cell-based; settings: treatment for 24 h
Source text: FIG. 6A-6C. Disruption of Rho/Rock Pathway signaling and stress fiber formation are required for tendon lineage determination. (6A) Immunocytochemistry of P-actin in MSCs grown either with no treatment or treated with Latrunculin A, Y-27632 and Blebbistatin for 7 days (blue=DAPI, green=P-actin). *P<0.05 for all treatments. (6B) mRNA expression and protein expression of Sex and mRNA expression of (6C) Coll al and Nfatc4 Nst in MSCs grown on silk scaffolds following treatment with Latrunculin A (LatA), Y-27632 (Y) and Blebbistatin (Bleb) for 24 h. Data represent three independent experiments per assay.
4. Disruption of stress fiber formation by blocking Rho/Rock Pathway signaling abolished silk scaffold induced MSCs tendon lineage differentiation. To determine the role of stress fibers in mediating silk fiber-induced MSC tenogenic differentiation, the impact of cell signaling on the regulation of stress fiber formation was examined.
Compared to untreated cells, cells that were exposed to the above treatment conditions lost their elongated phenotype (FIG. 6A). […] Therefore, the expression of Nfatc4 and Collal following treatment with Latrunculin A, Y-27632, and blebbistatin was also examined.

[2] = system: MSCs grown on silk scaffolds; assay: effect of cytochalasin D on silk-fiber induced MSC teno-differentiation; type: cell-based
Source text: FIG. 5A-5I. Cytochalasin D disrupted actin cytoskeletal arrangement in cells attached to scaffold fibers and abolished the elongated cell body [(5A) vs (5B)] and associated nuclear shape change [(5C) vs (5D)]. […] (5G) Relative mRNA and (5H) western blot of Sex and Tnmd expression with (i) relative mRNA expression of the housekeeping genes Hrptl and Pgkl as an internal control. Data represent at least three independent experiments per assay. *P<0.05 compared to MSCs seeded on a scaffold without cytochalasin D. Scale bar=25 μm.
3. Actin polymerization is required for scaffold induced stem cell elongation and expression of tenogenesis markers Sex and Tnmd. To determine the role of cytoskeletal organization in the differentiation of MSCs into tenocytes when MSCs are grown on silk, the effect of cytochalasin D, which inhibits actin polymerization by capping the barbed ends of F-actin polymers was examined on silk-fiber induced MSC teno-differentiation. Differences in cell shape and cell nuclei were quantified by measuring the lengths of the cells that were growing in parallel with the fibers and were compared to the maximal widths of the cells, which were measured perpendicular to the fibers. […] Significant differences were found when quantifying the cytoplasmic (P<0.05) and nuclear (P<0.05) ratios (Fig. SE).
To determine whether actin polymerization in elongated cells is required for tenogenic differentiation, the effect of cytochalasin D was examined on tenogenic marker gene and protein expression in MSCs that were grown on silk scaffolds for 7 days. […] To determine whether the loss of Sex and Tnmd expression was due to specific effects produced by cytochalasin D on actin polymerization and cell morphology, rather than due to general toxicity related to gene expression, the expression levels of two housekeeping genes, Hypoxanthine-guanine phosphoribosyltransferase
1 (Hprtl) and phosphoglycerate kinase 1 (Pgkl), were analyzed.

[3] = MSCs grown on silk scaffolds for 7 days, compared to untreated controls
[4] = check for general toxicity related to gene expression
[5] = compared to untreated MSCs, P<0.05

SMILES | expression level of Coll al [1] | expression level of Nfatc4 [1] | expression level of SCX proteins [1] | expression level of Sex mRNAs [1] | Sex expression (immunocytochemistry, real-time PCR, western blot) [2, 3] | Tnmd expression (immunocytochemistry, real-time PCR, western blot) [2, 3] | elongated phenotype of the cells [2, 3] | expression level of housekeeping gene Hprtl [2, 4] | expression level of housekeeping gene Pgkl [2, 4] | length-to-width ratio of cytoplasm [2, 5] | length-to-width ratio of nuclei [2, 5]
C/C1=C/C(=O)O[C@@H]2C[C@@H](CC[C@H](C)/C=C\C=C\CC1)O[C@@](O)([C@@H]1CSC(=O)N1)C2 [Latrunculin A] | significantly decreased | significantly decreased | significantly decreased | significantly decreased | – | – | – | – | – | – | –
C[C@@H](N)[C@H]1CC[C@H](C(=O)Nc2ccncc2)CC1 [Y-27632, Y-27632 dihydrochloride] | significantly decreased | significantly decreased | significantly decreased | significantly decreased | – | – | – | – | – | – | –
Cc1ccc2c(c1)C(=O)C1(O)CCN(c3ccccc3)C1=N2 (stereo not shown) [blebbistatin] | significantly decreased | significantly decreased | significantly decreased | significantly decreased | – | – | – | – | – | – | –
C=C1[C@@H](C)[C@H]2[C@H](Cc3ccccc3)NC(=O)[C@]23[C@H](OC(C)=O)/C=C/[C@@](C)(O)C(=O)[C@@H](C)C/C=C/[C@H]3[C@@H]1O [cytochalasin D] | – | – | – | – | loss | loss | abolished | remained unchanged | remained unchanged | smaller | smaller
